Patent US12435061B2 (priority 2020, dated 2025)
Where a name gives a salt, the structure may show the parent alone. Read-outs that look alike come from different tables or passages of the source.

Target: hTRPV3 (Homo sapiens (Human), UniProt Q8NET8)
Assay: Whole-cell patch clamp, hTRPV3 Phase 1 / Phase 2 currents
Format: cell-based
Summary of the method: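 Whole-cell recordings on induced TRPV3 cells replated on coverslips, held at −40 mV with 400 ms ramps from −120 to +100 mV every 5 s; currents read at −80 and +80 mV. Ringer's external solution; current activated by heating to ≥28 °C or 20 μM 2-APB.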

[1] = Phase 1 current, human TRPV3, read-out: hTRPV3 (nM) Phase 1
[2] = Phase 1 current, inward, whole-cell patch clamp, read-out: hTRPV3 Patch P1 Inwd
[3] = Phase 2 current, human TRPV3, read-out: hTRPV3 (nM) Phase 2
[4] = Phase 2 current, inward, whole-cell patch clamp, read-out: hTRPV3 Patch P2 Inwd

Sequence of hTRPV3 (Q8NET8 whole entry): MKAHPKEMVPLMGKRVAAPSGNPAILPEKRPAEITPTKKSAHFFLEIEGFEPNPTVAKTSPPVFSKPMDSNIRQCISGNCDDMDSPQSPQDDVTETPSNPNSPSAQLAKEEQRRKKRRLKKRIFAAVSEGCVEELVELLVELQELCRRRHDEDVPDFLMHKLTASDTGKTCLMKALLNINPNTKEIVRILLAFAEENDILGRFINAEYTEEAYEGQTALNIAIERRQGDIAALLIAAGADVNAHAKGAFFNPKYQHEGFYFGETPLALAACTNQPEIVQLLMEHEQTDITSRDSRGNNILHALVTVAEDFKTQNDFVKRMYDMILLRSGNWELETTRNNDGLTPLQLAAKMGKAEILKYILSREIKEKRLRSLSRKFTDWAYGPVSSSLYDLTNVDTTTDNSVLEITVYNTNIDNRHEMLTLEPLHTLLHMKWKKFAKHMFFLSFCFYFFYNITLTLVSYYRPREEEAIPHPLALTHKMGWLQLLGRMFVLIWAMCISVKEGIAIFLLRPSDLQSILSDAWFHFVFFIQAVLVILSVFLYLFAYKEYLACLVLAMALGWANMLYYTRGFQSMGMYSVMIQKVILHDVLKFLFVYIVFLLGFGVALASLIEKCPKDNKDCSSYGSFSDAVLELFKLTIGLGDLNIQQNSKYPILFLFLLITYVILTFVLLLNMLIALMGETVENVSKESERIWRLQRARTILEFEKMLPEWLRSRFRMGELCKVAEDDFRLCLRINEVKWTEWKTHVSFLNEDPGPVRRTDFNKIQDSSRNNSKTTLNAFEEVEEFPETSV

Row | SMILES | IC50 [1] [nM] | IC50 [2] [nM] | IC50 [3] [nM] | IC50 [4] [nM]
1 | CCc1ccccc1-c1ccc(C2CCN(C(=O)c3cc(OC)ccn3)C2)c(CO)c1 (stereo not drawn) [Compound 2-63, (3-(2′-ethyl-3-(hydroxymethyl)biphenyl-4-yl)pyrrolidin-1-yl)(4-methoxypyridin-2-yl)methanone] | 235 | 100 to 1000 | – | –
2 | COCc1ccccc1-c1ccc(C2CCN(C(=O)c3ccc(Cl)cn3)C2)c(CO)c1 (stereo not drawn) [Compound 2-65, (5-chloropyridin-2-yl)(3-(3-(hydroxymethyl)-2′-(methoxymethyl)biphenyl-4-yl)pyrrolidin-1-yl)methanone] | 97.7 | 10 to 100 | – | –
3 | CCc1nccnc1-c1ccc(C2CCN(C(=O)c3ccc(F)cn3)C2)c(CO)c1 (stereo not drawn) [Compound 2-68, (3-(4-(3-ethylpyrazin-2-yl)-2-(hydroxymethyl)phenyl)pyrrolidin-1-yl)(5-fluoropyridin-2-yl)methanone] | > 3200 | > 1000 | – | –
4 | CC(O)c1cc(F)ccc1-c1ccc(C2CCN(C(=O)c3ccc(F)cn3)C2)c(CO)c1 (stereo not drawn) [Compound 2-70, (3-(4′-fluoro-2′-(1-hydroxyethyl)-3-(hydroxymethyl)biphenyl-4-yl)pyrrolidin-1-yl)(5-fluoropyridin-2-yl)methanone] | 2330 | > 1000 | – | –
5 | CC(O)c1cc(F)ccc1-c1ccc(C2CCN(C(=O)c3ccc(Cl)cn3)C2)c(CO)c1 (stereo not drawn) [Compound 2-71, (5-chloropyridin-2-yl)(3-(4′-fluoro-2′-(1-hydroxyethyl)-3-(hydroxymethyl)biphenyl-4-yl)pyrrolidin-1-yl)methanone] | 860 | 100 to 1000 | 572 | 100 to 1000
6 | O=C(c1ncccc1F)N1CCC(c2ccc(-c3ccccc3C3CC3)cc2CO)C1 (stereo not drawn) [Compound 2-74] | 90.5 | 10 to 100 | 54.6 | 10 to 100
7 | COc1ccnc(C(=O)N2CCC(c3ccc(-c4ccccc4C4CC4)cc3CO)C2)c1 (stereo not drawn) [Compound 2-75, (3-(2′-cyclopropyl-3-(hydroxymethyl)biphenyl-4-yl)pyrrolidin-1-yl)(4-methoxypyridin-2-yl)methanone] | 215 | 100 to 1000 | – | –
8 | COc1ccc(C(=O)N2CCC(c3ccc(-c4ccccc4C4CC4)cc3CO)C2)nc1 (stereo not drawn) [Compound 2-76, (3-(2′-cyclopropyl-3-(hydroxymethyl)biphenyl-4-yl)pyrrolidin-1-yl)(5-methoxypyridin-2-yl)methanone] | 71 | 10 to 100 | – | –
9 | O=C(c1ccc(C(F)(F)F)cn1)N1CCC(c2ccc(-c3ccccc3)nc2CO)C1 (stereo not drawn) [Compound 2-81] | 268 | 100 to 1000 | 298 | 100 to 1000
10 | O=C(c1ccc(Cl)cn1)N1CCC(c2ccc(-c3ccccc3)nc2CO)C1 (stereo not drawn) [Compound 2-82] | 836 | 100 to 1000 | – | –
11 | Cc1ccccc1Oc1ccc(C2CCN(C(=O)c3ncccc3Cl)C2)c(CO)c1 (stereo not drawn) [Compound 2-84, (3-chloropyridin-2-yl)(3-(2-(hydroxymethyl)-4-(o-tolyloxy)phenyl)pyrrolidin-1-yl)methanone] | 932 | – | – | –
12 | O=C(c1ncccc1Cl)N1CCC(c2ccc(Oc3ccccc3)cc2CO)C1 (stereo not drawn) [Compound 2-85, (3-chloropyridin-2-yl)(3-(2-(hydroxymethyl)-4-phenoxyphenyl)pyrrolidin-1-yl)methanone] | 3310 | – | – | –
13 | CC(C)c1ccccc1Oc1ccc(C2CC(=O)N(Cc3ncccc3Cl)C2)c(CO)c1 (stereo not drawn) [Compound 2-88, 1-((3-chloropyridin-2-yl)methyl)-4-(2-(hydroxymethyl)-4-(2-isopropylphenoxy)phenyl)pyrrolidin-2-one] | 169 | 100 to 1000 | 184 | 100 to 1000
14 | Cc1cccnc1CN1CCC(c2ccc(Oc3ccccc3C(C)C)cc2CO)C1 (stereo not drawn) [Compound 2-89, (5-(2-isopropylphenoxy)-2-(1-((3-methylpyridin-2-yl)methyl)pyrrolidin-3-yl)phenyl)methanol hydrochloride] | 1230 | > 1000 | – | –
15 | Cc1ccc(CN2CCC(c3ccc(Oc4ccccc4C(C)C)cc3CO)C2)nc1 (stereo not drawn) [Compound 2-90, (5-(2-isopropylphenoxy)-2-(1-((5-methylpyridin-2-yl)methyl)pyrrolidin-3-yl)phenyl)methanol hydrochloride] | 812 | 100 to 1000 | – | –
16 | CC(C)c1ccccc1Oc1ccc(C2CCN(Cc3ccc(Cl)cn3)C2)c(CO)c1 (stereo not drawn) [Compound 2-91, (2-(1-((5-chloropyridin-2-yl)methyl)pyrrolidin-3-yl)-5-(2-isopropylphenoxy)phenyl)methanol] | 325 | 100 to 1000 | – | –
17 | CC(C)c1ccccc1Oc1ccc(C2CCN(Cc3ncccc3Cl)C2)c(CO)c1 (stereo not drawn) [Compound 2-92, (2-(1-((3-chloropyridin-2-yl)methyl)pyrrolidin-3-yl)-5-(2-isopropylphenoxy)phenyl)methanol hydrochloride] | 592 | 100 to 1000 | – | –
18 | Cc1cccc(CN2CCC(c3ccc(Oc4ccccc4C(C)C)cc3CO)C2)n1 (stereo not drawn) [Compound 2-94, (5-(2-isopropylphenoxy)-2-(1-((6-methylpyridin-2-yl)methyl)pyrrolidin-3-yl)phenyl)methanol hydrochloride] | 339 | 100 to 1000 | – | –
19 | CC(C)c1ccccc1Oc1ccc(C2CCN(Cc3cccc(Cl)n3)C2)c(CO)c1 (stereo not drawn) [Compound 2-96, (2-(1-((6-chloropyridin-2-yl)methyl)pyrrolidin-3-yl)-5-(2-isopropylphenoxy)phenyl)methanol hydrochloride] | 246 | 100 to 1000 | – | –
20 | Cc1cccc(CN2CC(c3ccc(Oc4ccccc4C(C)C)cc3C(N)=O)CC2=O)n1 (stereo not drawn) [Compound 2-97, 5-(2-isopropylphenoxy)-2-(1-((6-methylpyridin-2-yl)methyl)-5-oxopyrrolidin-3-yl)benzamide] | > 3200 | > 1000 | – | –

Row | SMILES | IC50 [1] [nM] | IC50 [2] [nM] | IC50 [3] [nM] | IC50 [4] [nM]
21 | CCc1ccccc1Oc1ccc(C2CC(=O)N(Cc3cccc(C)n3)C2)c(C(N)=O)c1 (stereo not drawn) [Compound 2-98, 5-(2-ethylphenoxy)-2-(1-((6-methylpyridin-2-yl)methyl)-5-oxopyrrolidin-3-yl)benzamide] | > 3200 | > 1000 | – | –
22 | CC(C)c1ccccc1Oc1ccc(C2CC(=O)N(Cc3ccccn3)C2)c(C(N)=O)c1 (stereo not drawn) [Compound 2-99, 5-(2-isopropylphenoxy)-2-(5-oxo-1-(pyridin-2-ylmethyl)pyrrolidin-3-yl)benzamide] | > 3200 | > 1000 | – | –
23 | CCc1ccccc1Oc1ccc(C2CC(=O)N(Cc3ccccn3)C2)c(C(N)=O)c1 (stereo not drawn) [Compound 2-100, 5-(2-ethylphenoxy)-2-(5-oxo-1-(pyridin-2-ylmethyl)pyrrolidin-3-yl)benzamide] | > 3200 | > 1000 | – | –
24 | CCc1ccccc1Oc1ccc(C2CC(=O)N(Cc3ccc(Cl)cn3)C2)c(C(N)=O)c1 (stereo not drawn) [Compound 2-101, 2-(1-((5-chloropyridin-2-yl)methyl)-5-oxopyrrolidin-3-yl)-5-(2-ethylphenoxy)benzamide] | > 3200 | > 1000 | – | –
25 | CC(C)c1ccccc1Oc1ccc(C2CC(=O)N(Cc3ccc(Cl)cn3)C2)c(C(N)=O)c1 (stereo not drawn) [Compound 2-102, 2-(1-((5-chloropyridin-2-yl)methyl)-5-oxopyrrolidin-3-yl)-5-(2-isopropylphenoxy)benzamide] | ~2150 | > 1000 | – | –
26 | Cc1nccnc1C(=O)N1CCC(c2ccc(-c3ccccc3C3CC3)cc2CO)C1 (stereo not drawn) [Compound 2-104, (3-(2′-cyclopropyl-3-(hydroxymethyl)biphenyl-4-yl)pyrrolidin-1-yl)(3-methylpyrazin-2-yl)methanone] | 756 | 100 to 1000 | – | –
27 | Cc1cnc(C(=O)N2CCC(c3ccc(-c4ccccc4C4CC4)cc3CO)C2)cn1 (stereo not drawn) [Compound 2-106, (3-(2′-cyclopropyl-3-(hydroxymethyl)biphenyl-4-yl)pyrrolidin-1-yl)(5-methylpyrazin-2-yl)methanone] | 67 | 10 to 100 | – | –
28 | O=C(c1cnc(Cl)cn1)N1CCC(c2ccc(-c3ccccc3C3CC3)cc2CO)C1 (stereo not drawn) [Compound 2-108] | 12.9 | 10 to 100 | – | –
29 | Cc1cncc(C(=O)N2CCC(c3ccc(-c4ccccc4C4CC4)cc3CO)C2)n1 (stereo not drawn) [Compound 2-109] | 18.2 | 10 to 100 | – | –
30 | O=C(c1ccncn1)N1CCC(c2ccc(-c3ccccc3C3CC3)cc2CO)C1 (stereo not drawn) [Compound 2-110, (3-(2′-cyclopropyl-3-(hydroxymethyl)biphenyl-4-yl)pyrrolidin-1-yl)(pyrimidin-4-yl)methanone] | 197 | 100 to 1000 | – | –
31 | O=C(c1cscn1)N1CCC(c2ccc(-c3ccccc3C3CC3)cc2CO)C1 (stereo not drawn) [Compound 2-111, (3-(2′-cyclopropyl-3-(hydroxymethyl)biphenyl-4-yl)pyrrolidin-1-yl)(thiazol-4-yl)methanone] | 194 | 100 to 1000 | – | –
32 | O=C(c1cc[nH]n1)N1CCC(c2ccc(-c3ccccc3C3CC3)cc2CO)C1 (stereo not drawn) [Compound 2-112, (3-(2′-cyclopropyl-3-(hydroxymethyl)biphenyl-4-yl)pyrrolidin-1-yl)(1H-pyrazol-3-yl)methanone] | 98 | 10 to 100 | – | –
33 | CCc1ccccc1-c1ccc(C2CCN(C(=O)C3CCN(C)CC3)C2)c(CO)c1 (stereo not drawn) [Compound 2-115] | > 3200 | – | – | –
34 | CC(C)c1ccccc1Oc1ccc(C2CCN(C(=O)Cc3ncccc3Cl)C2)c(CO)c1 (stereo not drawn) [Compound 2-117] | ~3500 | – | 2620 | –
35 | COC(=O)c1cc(-c2ccccc2C(C)C)ccc1C1CCN(C(=O)C(F)(F)F)C1 (stereo not drawn) [Compound 2-120] | > 3200 | – | – | –
36 | O=C(c1cocn1)N1CCC(c2ccc(-c3ccccc3C3CC3)cc2CO)C1 (stereo not drawn) [Compound 2-121] | 61.2 | – | – | –
37 | O=C(c1ncccn1)N1CCC(c2ccc(-c3ccccc3C3CC3)cc2CO)C1 (stereo not drawn) [Compound 2-122] | 202 | – | – | –
38 | Cc1cc(C(=O)N2CCC(c3ccc(-c4ccccc4C4CC4)cc3CO)C2)no1 (stereo not drawn) [Compound 2-123] | 62.9 | – | – | –
39 | O=C(c1csc(Cl)n1)N1CCC(c2ccc(-c3ccccc3C3CC3)cc2CO)C1 (stereo not drawn) [Compound 2-124] | 20.7 | – | – | –
